Measured values as given in US6338953B1, “Expression of an exogenous gene in a mammalian cell by use of a non-mammalian DNA virus having an altered coat protein” (The General Hospital Corporation, priority 1996, dated 2002).

Assays:
[1] = system: HepG2 cells; assay: Colorimetric (ONPG) β-galactosidase assay of cell extracts; format: cell-based, human
Experimental: Adherent cell lines were seeded one day prior to infection. Cells were exposed to virus in 2 ml of medium for 90 minutes, and then the virus-containing medium was removed and replaced with fresh medium. Mock-infected cells were treated with 2 ml medium lacking the viral inoculum.
To measure expression of the reporter gene in the infected cells, colorimetric assays of β-galactosidase enzymatic activity were performed with standard methods (Norton et al., 1985, Molecular & Cellular Biology 5:281-290). Other conventional methods for measuring β-galactosidase activity could be used in lieu of the methods employed in this example. Cell extracts were prepared at one day post-infection. Cell monolayers were rinsed three times with PBS, scraped from the dish, and collected by low-speed centrifugation. The cell pellets were resuspended in 25 mM Tris pH 7.4/0.1 mM EDTA and then subjected to three cycles of freezing in liquid nitrogen and thawing in a 37° C. water bath. The extracts were then clarified by centrifugation at 14,000×g for 5 minutes. Standard conditions for assaying β-galactosidase activity utilized 0.1 ml of cell extract, 0.8 ml of PM-2 buffer, and 0.2 ml of […] (4 mg/ml) in PM-2 buffer for 10 minutes at 37° C. (Norton et al., 1985, Mol. & Cell. Biol. 5:281-290). The reaction was stopped by the addition of 0.5 ml of 1 M sodium carbonate. The amount of substrate hydrolyzed was detected spectrophotometrically at 420 nm, and β-galactosidase enzymatic activity was calculated with conventional methods (Norton et al., 1985, Mol. & Cell. Biol. 5:281-290). The assay was verified to be linear with respect to extract concentration and time. Extract protein concentrations were determined using the Coomassie Plus protein assay (Pierce) with bovine serum albumin as a standard, and the level of β-galactosidase activity was expressed as units of β-galactosidase activity per mg of protein. Other standard protein assays can be used, if desired.
Baculovirus-mediated Gene Transfer is Inhibited by Lysomotropic Agents: To gain insight into the mechanism by which baculoviruses express an exogenous gene in a mammalian cell, the susceptibility of gene expression to a lysomotropic agent was examined. Like other enveloped viruses, the budded form of AcMNPV normally enters cells via endocytosis, followed by low pH-triggered fusion of the viral envelope with the endosomal membrane, thus allowing escape into the cytoplasm (Blissard et al., 1993, J. Virol. 66:6829-6835; Blissard et al., 1990, Ann. Rev. of Entomol. 35:127-155). To determine whether endosome acidification was necessary for baculovirus-mediated gene transfer into mammalian cells, HepG2 cells were infected with RSV-lacZ AcMNPV in the presence of chloroquine, a lysomotropic agent. HepG2 cells were exposed to AcMNPV virus in media containing or lacking inhibitor for 90 minutes, then the virus-containing media were removed and replaced with fresh media containing or lacking inhibitors as listed.
At one day post-infection, the cells were harvested and extracts were assayed for β-galactosidase activity and protein content. Each value in the table represents the average of three independent assays, with the amount of β-galactosidase produced by the RSV-lacZ AcMNPV virus in the absence of inhibitors assigned a value of 100%. β-galactosidase activity was normalized for protein content of each extract. […]

[2] = system: VGZ3-treated mammalian cells; assay: Inhibition of β-galactosidase expression in VGZ3-treated cells; format: cell-based; details: data not shown
[3] = system: Rat Hepatocytes; assay: Colorimetric (ONPG) β-galactosidase assay of cell extracts; details: background subtracted
[4] = system: HepG2 cells; format: cell-based, human; details: moi 100

Row | Molecule | effect on de novo expression of β-galactosidase ([1]; 25 μM continuously present during and after exposure to virus) | effect on β-galactosidase expression ([1]; added 90 minutes after exposure to the virus) | effect on β-galactosidase expression in VGZ3-treated mammalian cells [2] | inhibition of accumulation of β-galactosidase enzyme activity ([1]; HepG2 infected with RSV-lacZ virus, drug after infection) | Promoter strength, Rat Hepatocytes −butyrate [3] [Units/mg] | Promoter strength, Hep G2 −butyrate ([1]; moi 100, 24 hours, mock background subtracted) [Units/mg] | Promoter strength, Hep G2 +butyrate ([1]; moi 100, sodium butyrate added 2 hours after infection, 24 hours, background subtracted) [Units/mg] | X-gal staining of cells not treated with butyrate [4]
1 | CCN(CC)CCCC(C)Nc1ccnc2cc(Cl)ccc12 (stereo not drawn) [chloroquine] | completely prevented | only partial inhibition | inhibited β-galactosidase expression | – | – | – | – | –
2 | C[C@@H]1C[C@@H]([C@H](O)CC2CC(=O)NC(=O)C2)C(=O)[C@@H](C)C1 [cycloheximide] | – | – | inhibited β-galactosidase expression | more than 90% | – | – | – | –
3 | Albumin | – | – | – | – | 0.15 ± 0.08 | 0.0 ± 0.0 | 0.08 ± 0.04 | positively stained cells were detected
